We go through three compounds from patent EP4741383A1, “COMPOUND AND USE THEREOF AS ANTI-CANCER DRUG” (Tyligand Bioscience (Shanghai) Limited, priority 2023, dated 2025).

One assay addresses T1, MEG2 (Homo sapiens, UniProt P43378).
T1 construct: made in house; host or cells: E. coli
T1 sequence (P43378 1-593): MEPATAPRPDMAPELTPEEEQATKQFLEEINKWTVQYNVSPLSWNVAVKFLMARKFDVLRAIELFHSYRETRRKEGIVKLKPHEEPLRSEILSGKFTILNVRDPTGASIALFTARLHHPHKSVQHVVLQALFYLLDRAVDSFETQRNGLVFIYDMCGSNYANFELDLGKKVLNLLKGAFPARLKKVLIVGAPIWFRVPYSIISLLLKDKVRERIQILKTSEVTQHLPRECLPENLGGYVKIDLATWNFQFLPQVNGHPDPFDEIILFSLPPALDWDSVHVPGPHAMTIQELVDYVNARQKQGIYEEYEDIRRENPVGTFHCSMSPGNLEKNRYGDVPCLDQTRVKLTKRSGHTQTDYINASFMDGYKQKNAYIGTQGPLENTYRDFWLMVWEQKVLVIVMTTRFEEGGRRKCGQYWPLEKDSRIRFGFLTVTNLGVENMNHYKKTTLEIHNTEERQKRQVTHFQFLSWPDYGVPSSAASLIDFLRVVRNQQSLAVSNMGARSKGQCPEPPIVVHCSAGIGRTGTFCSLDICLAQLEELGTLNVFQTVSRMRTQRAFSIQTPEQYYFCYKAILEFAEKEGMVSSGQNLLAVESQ
Description: Tyrosine phosphatase selectivity (pNPP substrate), MEG2. Type of assay: biochemical. The settings on record: MEG2, pNPP substrate. The procedure:
(§1) This experiment evaluated the selectivity of the disclosed compounds against tyrosine phosphatases, including SHP1, HePTP, Laforin, LMWPTP, LYP, PTP1B, PRL2, SSU72, VHR, FAP1, STEP, CDC14A, CD45, MEG2, and PP5, all expressed and purified from E. coli.
(§2) Phosphatase activity was measured using p-nitrophenyl phosphate (pNPP) (Fisher Scientific) as the substrate in 50 mM 3,3-dimethylglutaric acid buffer (pH 7.0, containing 1 mM EDTA), with ionic strength adjusted to 0.15 M with NaCl. […] After 10-60 minutes, the reaction was quenched by adding 20 µL of 5 N NaOH. Wells without enzyme were used as controls for correction. The amount of the product, p-nitrophenol, was determined by measuring the absorbance at 405 nm using a Spectra MAX340 microplate spectrophotometer (Molecular Devices), with a molar extinction coefficient of 18000 M^-1cm^-1.
(§3) Data were analyzed using GraphPad Prism software. Dose-response curves were obtained by fitting data using the nonlinear S-curve regression Dose-response-inhibition equation, and IC50 values were calculated.
`O=C(Nc1ccc(-c2ccsc2)cc1)C(=O)Nc1ccc(-c2cc3cc(F)c(-c4nnn[nH]4)cc3n2C2CCC2)cc1` [Example 4] displayed an IC50 of 22.1 µM.
In the case of `O=C(Nc1ccc(-c2ccsc2)cc1)C(=O)Nc1ccc(-c2cc3cc(F)c(-c4nnn[nH]4)nc3n2C2CCC2)cc1` [Example 132], the 50% inhibitory concentration (IC50) came to 15.1 µM.
On to `CC1(n2c(-c3ccc(NC(=O)C(=O)Nc4ccc(N5CCC6(CCOC6)CC5)cc4)cc3)cc3cc(F)c(-c4nnn[nH]4)cc32)CCC1` [Example 68], for which inhibition was half-maximal at 0.89 µM (IC50).

Staying with this assay, now noted: selectivity ratio MEG2 over SHP2.
For `O=C(Nc1ccc(-c2ccsc2)cc1)C(=O)Nc1ccc(-c2cc3cc(F)c(-c4nnn[nH]4)cc3n2C2CCC2)cc1` [Example 4], the “IC50PTP/IC50SHP2 MEG2” value is given as 762.1.
For the compound `O=C(Nc1ccc(-c2ccsc2)cc1)C(=O)Nc1ccc(-c2cc3cc(F)c(-c4nnn[nH]4)nc3n2C2CCC2)cc1` [Example 132], the “IC50PTP/IC50SHP2 MEG2” value turned out to be 559.3.
With `CC1(n2c(-c3ccc(NC(=O)C(=O)Nc4ccc(N5CCC6(CCOC6)CC5)cc4)cc3)cc3cc(F)c(-c4nnn[nH]4)cc32)CCC1` [Example 68], the “IC50PTP/IC50SHP2 MEG2” value worked out at 18.5.

In the next assay the target is T2, PP5 (Homo sapiens, UniProt P53041).
T2 construct: made in house; host or cells: E. coli
T2 sequence (P53041 1-499): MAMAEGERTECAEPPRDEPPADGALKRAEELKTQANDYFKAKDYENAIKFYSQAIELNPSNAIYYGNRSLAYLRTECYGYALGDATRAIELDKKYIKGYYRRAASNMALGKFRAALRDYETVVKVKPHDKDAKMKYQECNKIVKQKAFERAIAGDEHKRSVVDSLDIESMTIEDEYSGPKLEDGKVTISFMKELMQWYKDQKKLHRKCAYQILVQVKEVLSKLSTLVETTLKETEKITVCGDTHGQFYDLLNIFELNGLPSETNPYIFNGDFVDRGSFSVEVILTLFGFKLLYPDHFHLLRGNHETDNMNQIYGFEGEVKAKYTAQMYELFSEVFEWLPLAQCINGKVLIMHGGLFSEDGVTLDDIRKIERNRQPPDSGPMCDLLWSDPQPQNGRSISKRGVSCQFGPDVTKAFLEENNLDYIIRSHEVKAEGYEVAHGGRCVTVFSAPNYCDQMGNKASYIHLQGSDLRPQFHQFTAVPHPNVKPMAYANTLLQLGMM
Description: Tyrosine phosphatase selectivity (pNPP substrate), PP5. Type of assay: biochemical. Particulars: PP5, pNPP substrate. The procedure:
as §1, §2, §3
For the compound `O=C(Nc1ccc(-c2ccsc2)cc1)C(=O)Nc1ccc(-c2cc3cc(F)c(-c4nnn[nH]4)cc3n2C2CCC2)cc1` [Example 4], the IC50 was over 50 µM.
The compound `O=C(Nc1ccc(-c2ccsc2)cc1)C(=O)Nc1ccc(-c2cc3cc(F)c(-c4nnn[nH]4)nc3n2C2CCC2)cc1` [Example 132] gave an IC50 of over 50 µM.
Take `CC1(n2c(-c3ccc(NC(=O)C(=O)Nc4ccc(N5CCC6(CCOC6)CC5)cc4)cc3)cc3cc(F)c(-c4nnn[nH]4)cc32)CCC1` [Example 68]: the IC50 was over 25 µM.

The assay is the same for the next values; noted with them: selectivity ratio PP5 over SHP2.
In the case of `O=C(Nc1ccc(-c2ccsc2)cc1)C(=O)Nc1ccc(-c2cc3cc(F)c(-c4nnn[nH]4)cc3n2C2CCC2)cc1` [Example 4], the “IC50PTP/IC50SHP2 PP5” value is listed as 1724.1.
On the same count and under the same terms, for `O=C(Nc1ccc(-c2ccsc2)cc1)C(=O)Nc1ccc(-c2cc3cc(F)c(-c4nnn[nH]4)nc3n2C2CCC2)cc1` [Example 132] the value was 1851.9; for `CC1(n2c(-c3ccc(NC(=O)C(=O)Nc4ccc(N5CCC6(CCOC6)CC5)cc4)cc3)cc3cc(F)c(-c4nnn[nH]4)cc32)CCC1` [Example 68], 520.8.

A further assay concerns the target T3, CD45 (Homo sapiens, UniProt P08575).
T3 construct: made in house; host or cells: E. coli
T3 sequence (P08575 26-1306): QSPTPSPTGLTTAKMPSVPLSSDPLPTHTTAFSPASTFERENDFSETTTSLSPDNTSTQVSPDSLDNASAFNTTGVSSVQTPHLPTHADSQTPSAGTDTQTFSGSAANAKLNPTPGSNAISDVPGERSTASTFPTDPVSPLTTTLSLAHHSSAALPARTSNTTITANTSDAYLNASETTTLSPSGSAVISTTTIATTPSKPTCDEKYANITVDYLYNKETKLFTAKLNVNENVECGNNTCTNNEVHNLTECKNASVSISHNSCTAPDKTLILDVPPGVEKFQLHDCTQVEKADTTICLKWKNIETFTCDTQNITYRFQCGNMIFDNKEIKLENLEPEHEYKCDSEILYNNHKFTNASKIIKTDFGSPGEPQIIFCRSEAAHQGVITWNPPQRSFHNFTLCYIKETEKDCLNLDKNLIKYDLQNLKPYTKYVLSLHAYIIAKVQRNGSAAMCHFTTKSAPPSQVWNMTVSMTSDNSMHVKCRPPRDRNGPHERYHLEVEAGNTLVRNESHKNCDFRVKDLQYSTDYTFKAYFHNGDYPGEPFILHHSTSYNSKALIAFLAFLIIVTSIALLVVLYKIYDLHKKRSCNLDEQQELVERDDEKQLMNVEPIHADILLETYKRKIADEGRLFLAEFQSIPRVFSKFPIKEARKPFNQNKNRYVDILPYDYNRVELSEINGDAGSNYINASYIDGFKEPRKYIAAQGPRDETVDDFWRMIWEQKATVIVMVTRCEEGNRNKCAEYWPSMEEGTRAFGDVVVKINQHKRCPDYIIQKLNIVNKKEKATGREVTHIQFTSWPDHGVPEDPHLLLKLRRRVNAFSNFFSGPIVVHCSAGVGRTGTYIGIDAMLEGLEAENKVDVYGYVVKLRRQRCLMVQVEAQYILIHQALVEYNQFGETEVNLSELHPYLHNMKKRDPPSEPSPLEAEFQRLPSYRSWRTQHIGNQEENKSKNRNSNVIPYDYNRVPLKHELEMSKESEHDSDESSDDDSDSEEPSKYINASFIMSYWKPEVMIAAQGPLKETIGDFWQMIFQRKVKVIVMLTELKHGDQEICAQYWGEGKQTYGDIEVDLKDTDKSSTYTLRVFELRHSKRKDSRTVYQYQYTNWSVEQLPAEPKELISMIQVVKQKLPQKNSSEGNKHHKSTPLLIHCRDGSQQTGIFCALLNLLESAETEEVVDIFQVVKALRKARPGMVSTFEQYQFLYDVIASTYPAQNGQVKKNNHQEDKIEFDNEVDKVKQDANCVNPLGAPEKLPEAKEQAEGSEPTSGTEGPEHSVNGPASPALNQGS
Description: Tyrosine phosphatase selectivity (pNPP substrate), CD45. Type of assay: biochemical. The settings on record: CD45, pNPP substrate. The procedure:
as §1, §2, §3
In turn, `O=C(Nc1ccc(-c2ccsc2)cc1)C(=O)Nc1ccc(-c2cc3cc(F)c(-c4nnn[nH]4)cc3n2C2CCC2)cc1` [Example 4] returned an IC50 of over 50 µM.
As for `O=C(Nc1ccc(-c2ccsc2)cc1)C(=O)Nc1ccc(-c2cc3cc(F)c(-c4nnn[nH]4)nc3n2C2CCC2)cc1` [Example 132], the IC50 stood at 23.7 µM.
`CC1(n2c(-c3ccc(NC(=O)C(=O)Nc4ccc(N5CCC6(CCOC6)CC5)cc4)cc3)cc3cc(F)c(-c4nnn[nH]4)cc32)CCC1` [Example 68]: it took 3.48 µM to reach half-maximal inhibition (IC50).

Still in this assay, the particulars now being: selectivity ratio CD45 over SHP2.
As to `O=C(Nc1ccc(-c2ccsc2)cc1)C(=O)Nc1ccc(-c2cc3cc(F)c(-c4nnn[nH]4)cc3n2C2CCC2)cc1` [Example 4], the “IC50PTP/IC50SHP2 CD45” value is 1724.1.
With `O=C(Nc1ccc(-c2ccsc2)cc1)C(=O)Nc1ccc(-c2cc3cc(F)c(-c4nnn[nH]4)nc3n2C2CCC2)cc1` [Example 132], the “IC50PTP/IC50SHP2 CD45” value is 877.8.
For `CC1(n2c(-c3ccc(NC(=O)C(=O)Nc4ccc(N5CCC6(CCOC6)CC5)cc4)cc3)cc3cc(F)c(-c4nnn[nH]4)cc32)CCC1` [Example 68], the “IC50PTP/IC50SHP2 CD45” value is on record as 72.5.

The target of another assay is T4, VHR (Homo sapiens, UniProt P51452).
T4 construct: made in house; host or cells: E. coli
T4 sequence (P51452 whole entry, species assumed): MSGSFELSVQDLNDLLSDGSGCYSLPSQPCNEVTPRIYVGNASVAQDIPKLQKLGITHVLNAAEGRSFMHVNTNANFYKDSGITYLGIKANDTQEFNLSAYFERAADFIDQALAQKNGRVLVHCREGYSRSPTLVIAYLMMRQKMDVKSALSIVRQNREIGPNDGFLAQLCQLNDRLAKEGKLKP
Description: Tyrosine phosphatase selectivity (pNPP substrate), VHR. Type of assay: biochemical. Particulars: VHR, pNPP substrate. The procedure:
as §1, §2, §3
`O=C(Nc1ccc(-c2ccsc2)cc1)C(=O)Nc1ccc(-c2cc3cc(F)c(-c4nnn[nH]4)cc3n2C2CCC2)cc1` [Example 4] displayed an IC50 of 4.5 µM.
As to `O=C(Nc1ccc(-c2ccsc2)cc1)C(=O)Nc1ccc(-c2cc3cc(F)c(-c4nnn[nH]4)nc3n2C2CCC2)cc1` [Example 132], the IC50 turned out to be 10.3 µM.
In the case of `CC1(n2c(-c3ccc(NC(=O)C(=O)Nc4ccc(N5CCC6(CCOC6)CC5)cc4)cc3)cc3cc(F)c(-c4nnn[nH]4)cc32)CCC1` [Example 68], the IC50 is over 25 µM.

The assay is the same for the next values; noted with them: selectivity ratio VHR over SHP2.
On to `O=C(Nc1ccc(-c2ccsc2)cc1)C(=O)Nc1ccc(-c2cc3cc(F)c(-c4nnn[nH]4)cc3n2C2CCC2)cc1` [Example 4], for which the “IC50PTP/IC50SHP2 VHR” value came out at 155.2.
For `O=C(Nc1ccc(-c2ccsc2)cc1)C(=O)Nc1ccc(-c2cc3cc(F)c(-c4nnn[nH]4)nc3n2C2CCC2)cc1` [Example 132], the “IC50PTP/IC50SHP2 VHR” value came to 381.5.
Take `CC1(n2c(-c3ccc(NC(=O)C(=O)Nc4ccc(N5CCC6(CCOC6)CC5)cc4)cc3)cc3cc(F)c(-c4nnn[nH]4)cc32)CCC1` [Example 68]: the “IC50PTP/IC50SHP2 VHR” value was 520.8.
